Assay results published in the NIST ThermoML archive (doi:10.1016/j.jct.2010.05.009).

Columns and labels:
[1] = refractive index (Na D-line) (dimensionless); xn = mol fraction of the nth substance listed; conditions: 101 kPa, Liquid, Standard Abbe refractometry
[2] = xn = mol fraction of the nth substance listed; conditions: 101 kPa, Liquid; for viscosity: Capillary tube (Ostwald / Ubbelohde) method; for mass density: Vibrating tube method

CCCN [propan-1-amine] + CCC(C)(C)O
Conditions | mass density, 288.15 K [kg/m3] | mass density, 298.15 K [kg/m3] | mass density, 308.15 K [kg/m3] | refractive index, 288.15 K | refractive index, 298.15 K | refractive index, 308.15 K | viscosity, 288.15 K [mPa·s] | viscosity, 298.15 K [mPa·s] | viscosity, 308.15 K [mPa·s]
[1], x2 = 0 | – | – | – | 1.3899 | 1.3844 | 1.3784 | – | – | –
[1], x2 = 0.0733 | – | – | – | 1.392 | 1.3868 | 1.3809 | – | – | –
[1], x2 = 0.1528 | – | – | – | 1.3944 | 1.3893 | 1.3835 | – | – | –
[1], x2 = 0.2327 | – | – | – | 1.3968 | 1.3917 | 1.386 | – | – | –
[1], x2 = 0.3155 | – | – | – | 1.3989 | 1.394 | 1.3884 | – | – | –
[1], x2 = 0.398 | – | – | – | 1.4009 | 1.3961 | 1.3906 | – | – | –
[1], x2 = 0.4888 | – | – | – | 1.4028 | 1.398 | 1.3926 | – | – | –
[1], x2 = 0.5804 | – | – | – | 1.4043 | 1.3996 | 1.3944 | – | – | –
[1], x2 = 0.6697 | – | – | – | 1.4053 | 1.4005 | 1.3954 | – | – | –
[1], x2 = 0.7769 | – | – | – | 1.4058 | 1.4012 | 1.3962 | – | – | –
[1], x2 = 0.8741 | – | – | – | 1.406 | 1.4013 | 1.3964 | – | – | –
[1], x2 = 0.9498 | – | – | – | 1.4061 | 1.4014 | 1.3966 | – | – | –
[2], x2 = 0 | 721.57 | 711.08 | 700.4 | – | – | – | 0.3851 | 0.3585 | 0.3222
[2], x2 = 0.0733 | 731.65 | 721.43 | 710.97 | – | – | – | 0.4625 | 0.4161 | 0.3822
[2], x2 = 0.1528 | 742.12 | 732.03 | 721.79 | – | – | – | 0.5521 | 0.4813 | 0.4437
[2], x2 = 0.2327 | 752 | 742.1 | 732.07 | – | – | – | 0.6938 | 0.5258 | 0.501
[2], x2 = 0.3155 | 761.54 | 751.82 | 741.93 | – | – | – | 0.8513 | 0.6157 | 0.5725
[2], x2 = 0.398 | 770.38 | 760.84 | 751.09 | – | – | – | 1.041 | 0.7142 | 0.6756
[2], x2 = 0.4888 | 779.41 | 770.02 | 760.39 | – | – | – | 1.354 | 0.8835 | 0.8338
[2], x2 = 0.5804 | 787.76 | 778.45 | 768.97 | – | – | – | 1.827 | 1.129 | 1.03
[2], x2 = 0.6697 | 795.11 | 785.88 | 776.64 | – | – | – | 2.39 | 1.468 | 1.283
[2], x2 = 0.7769 | 802.69 | 793.82 | 784.6 | – | – | – | 3.288 | 1.974 | 1.664
[2], x2 = 0.8741 | 808.3 | 799.58 | 790.43 | – | – | – | 4.258 | 2.565 | 2.03
[2], x2 = 0.9498 | 811.88 | 803.1 | 793.93 | – | – | – | 5.17 | 3.068 | 2.304
